Test results: US20160089439A1, “Prevention of Illicit Manufacutre of Methamphetamine from Pseudoephedrine Using Food Flavor Excipients” (Satara Pharmaceuticals, LLC, priority 2014, published 2016)

Experiment: Reaction of excipient and pseudoephedrine with lithium in liquid ammonia, methamphetamine quantified
Conditions: excipient 1.0 mmol + pseudoephedrine 1.0 mmol; pseudoephedrine only = 100

**Q.** With CCOc1cnc(C)cn1 [2-Ethoxy-5-methylpyrazine] as the compound, how does the “Relative percentage of methamphetamine formation, Li—NH3 Reduction” value (from here on “Relative percentage … Li—NH3 Reduction”) read?
**A.** 7%

**Q.** For COc1nccnc1CC(C)C [2-Isobutyl-3-methoxypyrazine], which “Relative percentage … Li—NH3 Reduction” value is on record?
**A.** 2%

**Q.** Which “Relative percentage … Li—NH3 Reduction” value does the source give for CCOc1cncc(C)n1 [2-Ethoxy-6-methylpyrazine] here?
**A.** 4%

**Q.** Which “Relative percentage … Li—NH3 Reduction” value does the source give for COc1nccnc1C [2-Methoxy-3-methylpyrazine] here?
**A.** <1%

**Q.** With CC(C)COC(=O)c1ccccc1N [Isobutyl anthranilate] as the compound, how does the “Relative percentage … Li—NH3 Reduction” value read?
**A.** <1%

**Q.** With CC(=O)c1cnccn1 [Acetylpyrazine] as the compound, how does the “Relative percentage … Li—NH3 Reduction” value read?
**A.** <<1%

**Q.** With CC(=O)c1nccs1 [2-Acetylthiazole] as the compound, how does the “Relative percentage … Li—NH3 Reduction” value read?
**A.** <1%

**Q.** With Cc1cnc(C)c(C)n1 [2,3,5-Trimethylpyrazine] as the compound, how does the “Relative percentage … Li—NH3 Reduction” value read?
**A.** 8%

Same assay, conditions: summary of Table 1, both Li—NH3 and P—HI reductions

**Q.** For CC(=O)c1cnccn1 [Acetylpyrazine], which “Inhibiting the conversion of pseudoephedrine to methamphetamine (in words)” value is on record?
**A.** most effective among all of the pyrazine derivatives tested

Experiment: Reaction of excipient and pseudoephedrine with red phosphorous and hydriodic acid, methamphetamine quantified
Conditions: excipient 1.0 mmol + pseudoephedrine 1.0 mmol, 57% aqueous hydriodic acid, 90-100° C.; pseudoephedrine only = 100

**Q.** For CCOc1cnc(C)cn1 [2-Ethoxy-5-methylpyrazine], which “Relative percentage of methamphetamine formation, P—HI Reduction” value (from here on “Relative percentage … P—HI Reduction”) is on record?
**A.** 15%

**Q.** Which “Relative percentage … P—HI Reduction” value does the source give for COc1nccnc1CC(C)C [2-Isobutyl-3-methoxypyrazine] here?
**A.** 27%

**Q.** With CCOc1cncc(C)n1 [2-Ethoxy-6-methylpyrazine] as the compound, how does the “Relative percentage … P—HI Reduction” value read?
**A.** 13%

**Q.** Which “Relative percentage … P—HI Reduction” value does the source give for COc1nccnc1C [2-Methoxy-3-methylpyrazine] here?
**A.** 2.0%

**Q.** With CC(C)COC(=O)c1ccccc1N [Isobutyl anthranilate] as the compound, how does the “Relative percentage … P—HI Reduction” value read?
**A.** 2.3%

**Q.** With CC(=O)c1cnccn1 [Acetylpyrazine] as the compound, how does the “Relative percentage … P—HI Reduction” value read?
**A.** 6%

**Q.** Which “Relative percentage … P—HI Reduction” value does the source give for Cc1cnc(C)c(C)n1 [2,3,5-Trimethylpyrazine] here?
**A.** 20%

Experiment: not given
Conditions: species and route not given; cited from earlier work

**Q.** With CC(=O)c1cnccn1 [Acetylpyrazine] as the compound, how does the LD50 read?
**A.** > 4000 mg/kg
